# Experimental data reported in ChEMBL document CHEMBL1921770, “Synthesis and structure-activity relationship (SAR) of (5,7-disubstituted 3-phenylsulfonyl-pyrazolo[1,5-a]pyrimidin-2-yl)-methylamines as potent serotonin 5-HT(6) receptor (5-HT(6)R) antagonists” (J Med Chem, 2011).
# Active and inactive are the calls of the source. The calls are words filed in the database; no cut-off is given here.
# Assays:
# [1] = biological target: T1, 5-hydroxytryptamine receptor 6 (Homo sapiens, UniProt P50406); test: Partial agonist activity at human recombinant 5-HT6 receptor expressed in human HEK293 cells assessed as inhibition of serotonin-induced cAMP accumulation; assay type: functional, cell-based
# [2] = biological target: T1, 5-hydroxytryptamine receptor 6; test: Inhibition of human recombinant 5-HT6 receptor expressed in human HEK293 cells assessed as inhibition of serotonin-induced cAMP accumulation; assay type: functional, cell-based
# [3] = biological target: D(4) dopamine receptor (Homo sapiens) (UniProt P21917); test: Inhibition of dopamine D4.4 receptor at 1 uM by ligand displacement assay
# [4] = Inhibition of dopamine D4.7 receptor at 1 uM by ligand displacement assay
# [5] = biological target: D(1B) dopamine receptor (Homo sapiens) (UniProt P21918); test: Inhibition of dopamine D5 receptor at 1 uM by ligand displacement assay
# [6] = biological target: Histamine H1 receptor (Homo sapiens) (UniProt P35367); test: Inhibition of histamine H1 receptor at 1 uM by ligand displacement assay
# [7] = biological target: Histamine H2 receptor (Homo sapiens) (UniProt P25021); test: Inhibition of histamine H2 receptor at 1 uM by ligand displacement assay
# [8] = biological target: Histamine H3 receptor (Homo sapiens) (UniProt Q9Y5N1); test: Inhibition of histamine H3 receptor at 1 uM by ligand displacement assay
# [9] = biological target: Muscarinic acetylcholine receptor M1 (Homo sapiens) (UniProt P11229); test: Inhibition of muscarinic M1 receptor at 1 uM by ligand displacement assay
# [10] = biological target: Muscarinic acetylcholine receptor M2 (Homo sapiens) (UniProt P08172); test: Inhibition of muscarinic M2 receptor at 1 uM by ligand displacement assay
# [11] = biological target: Muscarinic acetylcholine receptor M3 (Homo sapiens) (UniProt P20309); test: Inhibition of muscarinic M3 receptor at 1 uM by ligand displacement assay
# [12] = biological target: Muscarinic acetylcholine receptor M4 (Homo sapiens) (UniProt P08173); test: Inhibition of muscarinic M4 receptor at 1 uM by ligand displacement assay
# [13] = biological target: 5-hydroxytryptamine receptor 1A (Homo sapiens) (UniProt P08908); test: Inhibition of serotonin 5-HT1A receptor at 1 uM by ligand displacement assay
# [14] = biological target: 5-hydroxytryptamine receptor 1B (Homo sapiens) (UniProt P28222); test: Inhibition of serotonin 5-HT1B receptor at 1 uM by ligand displacement assay
# [15] = biological target: 5-hydroxytryptamine receptor 2A (Homo sapiens) (UniProt P28223); test: Inhibition of serotonin 5-HT2A receptor at 1 uM by ligand displacement assay
# [16] = biological target: 5-hydroxytryptamine receptor 2B (Homo sapiens) (UniProt P41595); test: Displacement of[3H]lysergic acid […] 5-HT2B receptor at 1 uM by ligand displacement assay
# [17] = biological target: T2, 5-hydroxytryptamine receptor 2C (Homo sapiens) (UniProt P28335); test: Inhibition of serotonin 5-HT2C receptor at 1 uM by ligand displacement assay
# T2 sequence (whole entry): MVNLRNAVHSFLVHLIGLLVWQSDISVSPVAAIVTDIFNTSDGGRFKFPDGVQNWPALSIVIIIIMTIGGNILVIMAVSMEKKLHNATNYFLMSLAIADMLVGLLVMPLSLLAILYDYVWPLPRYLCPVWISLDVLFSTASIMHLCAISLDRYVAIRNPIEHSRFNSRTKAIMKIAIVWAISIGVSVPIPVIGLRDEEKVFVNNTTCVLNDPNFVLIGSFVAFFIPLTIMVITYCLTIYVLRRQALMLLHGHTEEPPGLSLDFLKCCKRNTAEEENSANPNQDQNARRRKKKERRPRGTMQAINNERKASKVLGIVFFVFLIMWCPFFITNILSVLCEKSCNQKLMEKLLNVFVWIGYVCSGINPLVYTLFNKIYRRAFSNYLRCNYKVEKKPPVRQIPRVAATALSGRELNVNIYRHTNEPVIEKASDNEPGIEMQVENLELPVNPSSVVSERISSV
# [18] = biological target: T1, 5-hydroxytryptamine receptor 6; test: Antagonist activity at human recombinant 5-HT6 receptor expressed in human HEK293 cells assessed as inhibition of serotonin-induced cAMP accumulation; assay type: functional, cell-based; conditions: read-out: pA2 (converted)
# [19] = biological target: Adenosine receptor A1 (Homo sapiens) (UniProt P30542); test: Inhibition of adenosine A1 receptor at 1 uM by ligand displacement assay
# [20] = biological target: Adenosine receptor A2a (Homo sapiens) (UniProt P29274); test: Inhibition of adenosine A2A receptor at 1 uM by ligand displacement assay
# [21] = biological target: Adenosine receptor A2b (Homo sapiens) (UniProt P29275); test: Inhibition of adenosine A2B receptor at 1 uM by ligand displacement assay
# [22] = biological target: Adenosine receptor A3 (Homo sapiens) (UniProt P0DMS8); test: Inhibition of adenosine A3 receptor at 1 uM by ligand displacement assay
# [23] = Inhibition of adrenergic alpha1 receptor at 1 uM by ligand displacement assay
# [24] = biological target: Alpha-2A adrenergic receptor (Homo sapiens) (UniProt P08913); test: Inhibition of adrenergic alpha2 receptor at 1 uM by ligand displacement assay
# [25] = Inhibition of adrenergic beta receptor at 1 uM by ligand displacement assay
# [26] = biological target: D(1A) dopamine receptor (Homo sapiens) (UniProt P21728); test: Inhibition of dopamine D1 receptor at 1 uM by ligand displacement assay
# [27] = biological target: D(2) dopamine receptor (Homo sapiens) (UniProt P14416); test: Inhibition of dopamine D2S receptor at 1 uM by ligand displacement assay
# [28] = biological target: D(3) dopamine receptor (Homo sapiens) (UniProt P35462); test: Inhibition of dopamine D3 receptor at 1 uM by ligand displacement assay
# [29] = Inhibition of dopamine D4.2 receptor at 1 uM by ligand displacement assay
# [30] = biological target: 5-hydroxytryptamine receptor 3A (Homo sapiens) (UniProt P46098); test: Inhibition of serotonin 5-HT3 receptor at 1 uM by ligand displacement assay
# [31] = biological target: 5-hydroxytryptamine receptor 4 (Homo sapiens) (UniProt Q13639); test: Inhibition of serotonin 5-HT4 receptor at 1 uM by ligand displacement assay
# [32] = biological target: 5-hydroxytryptamine receptor 5A (Homo sapiens) (UniProt P47898); test: Inhibition of serotonin 5-HT5A receptor at 1 uM by ligand displacement assay
# [33] = biological target: T1, 5-hydroxytryptamine receptor 6; test: Displacement of[3H]lysergic acid […] from 5-HT6 receptor at 1 uM by ligand displacement assay
# [34] = biological target: 5-hydroxytryptamine receptor 7 (Homo sapiens) (UniProt P34969); test: Inhibition of serotonin 5-HT7 receptor at 1 uM by ligand displacement assay
# [35] = biological target: Voltage-gated inwardly rectifying potassium channel KCNH2 (Homo sapiens, UniProt Q12809); test: Inhibition of human Erg at 1 uM by ligand displacement assay
# T1 sequence (P50406 whole entry): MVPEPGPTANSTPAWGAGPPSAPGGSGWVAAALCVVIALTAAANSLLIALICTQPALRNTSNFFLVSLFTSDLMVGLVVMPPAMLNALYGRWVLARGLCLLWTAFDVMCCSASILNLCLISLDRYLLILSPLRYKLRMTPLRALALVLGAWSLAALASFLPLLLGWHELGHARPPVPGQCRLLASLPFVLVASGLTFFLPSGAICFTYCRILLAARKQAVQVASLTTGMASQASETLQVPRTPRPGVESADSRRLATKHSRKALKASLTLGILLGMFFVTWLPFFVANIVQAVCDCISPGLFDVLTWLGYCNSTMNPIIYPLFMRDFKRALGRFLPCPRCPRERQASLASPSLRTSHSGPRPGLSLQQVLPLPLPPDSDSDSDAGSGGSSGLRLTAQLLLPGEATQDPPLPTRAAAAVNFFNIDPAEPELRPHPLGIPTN
# 5-hydroxytryptamine receptor 2B (Homo sapiens), sequence (P41595 whole entry): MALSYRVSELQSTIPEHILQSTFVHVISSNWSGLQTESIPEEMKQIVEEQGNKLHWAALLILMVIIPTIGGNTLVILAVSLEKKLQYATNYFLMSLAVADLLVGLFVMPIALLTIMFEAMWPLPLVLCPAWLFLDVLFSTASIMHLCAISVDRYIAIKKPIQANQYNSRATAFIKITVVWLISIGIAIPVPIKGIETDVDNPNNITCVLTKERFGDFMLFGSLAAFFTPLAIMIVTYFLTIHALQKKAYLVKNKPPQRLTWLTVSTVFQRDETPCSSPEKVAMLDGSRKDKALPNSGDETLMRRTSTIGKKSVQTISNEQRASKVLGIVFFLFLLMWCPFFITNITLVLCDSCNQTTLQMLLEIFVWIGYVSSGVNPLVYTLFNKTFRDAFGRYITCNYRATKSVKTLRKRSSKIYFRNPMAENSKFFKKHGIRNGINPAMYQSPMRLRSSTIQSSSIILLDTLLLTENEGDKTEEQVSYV
# D(3) dopamine receptor (Homo sapiens), sequence (P35462 whole entry): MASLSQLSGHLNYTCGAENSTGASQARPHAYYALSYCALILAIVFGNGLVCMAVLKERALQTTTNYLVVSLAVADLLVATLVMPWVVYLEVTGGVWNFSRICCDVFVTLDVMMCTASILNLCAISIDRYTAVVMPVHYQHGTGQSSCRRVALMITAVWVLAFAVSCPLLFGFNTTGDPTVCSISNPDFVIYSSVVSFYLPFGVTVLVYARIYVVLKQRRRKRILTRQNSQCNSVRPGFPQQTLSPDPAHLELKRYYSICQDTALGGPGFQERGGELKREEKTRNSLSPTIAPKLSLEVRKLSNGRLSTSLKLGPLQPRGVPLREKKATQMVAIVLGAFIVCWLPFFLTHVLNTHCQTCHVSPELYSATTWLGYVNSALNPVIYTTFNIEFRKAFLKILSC
# D(1A) dopamine receptor (Homo sapiens), sequence (P21728 whole entry): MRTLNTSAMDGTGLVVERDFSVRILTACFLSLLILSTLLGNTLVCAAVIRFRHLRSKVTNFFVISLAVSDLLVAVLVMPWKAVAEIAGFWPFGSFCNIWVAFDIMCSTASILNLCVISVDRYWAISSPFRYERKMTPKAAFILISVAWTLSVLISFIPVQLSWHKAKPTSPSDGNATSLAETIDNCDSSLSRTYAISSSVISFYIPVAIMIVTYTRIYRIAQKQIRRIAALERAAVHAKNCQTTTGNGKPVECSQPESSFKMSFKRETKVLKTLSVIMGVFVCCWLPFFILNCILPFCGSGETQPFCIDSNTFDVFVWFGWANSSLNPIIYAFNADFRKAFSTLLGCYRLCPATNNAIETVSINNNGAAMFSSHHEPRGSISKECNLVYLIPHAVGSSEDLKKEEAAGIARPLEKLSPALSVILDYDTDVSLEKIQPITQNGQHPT
# Adenosine receptor A2a (Homo sapiens), sequence (P29274 whole entry): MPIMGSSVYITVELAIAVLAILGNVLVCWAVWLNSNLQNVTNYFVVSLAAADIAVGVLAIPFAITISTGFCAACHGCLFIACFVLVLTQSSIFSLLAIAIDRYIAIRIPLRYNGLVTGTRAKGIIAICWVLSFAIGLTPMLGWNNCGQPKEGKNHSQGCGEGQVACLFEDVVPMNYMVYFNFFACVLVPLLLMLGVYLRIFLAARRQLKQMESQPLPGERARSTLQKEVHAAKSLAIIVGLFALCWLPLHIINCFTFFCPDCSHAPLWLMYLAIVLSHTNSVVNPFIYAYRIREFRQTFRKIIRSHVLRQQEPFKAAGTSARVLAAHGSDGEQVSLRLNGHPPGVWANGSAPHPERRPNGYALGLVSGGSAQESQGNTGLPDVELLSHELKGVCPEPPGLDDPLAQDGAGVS
# 5-hydroxytryptamine receptor 1B (Homo sapiens), sequence (P28222 whole entry): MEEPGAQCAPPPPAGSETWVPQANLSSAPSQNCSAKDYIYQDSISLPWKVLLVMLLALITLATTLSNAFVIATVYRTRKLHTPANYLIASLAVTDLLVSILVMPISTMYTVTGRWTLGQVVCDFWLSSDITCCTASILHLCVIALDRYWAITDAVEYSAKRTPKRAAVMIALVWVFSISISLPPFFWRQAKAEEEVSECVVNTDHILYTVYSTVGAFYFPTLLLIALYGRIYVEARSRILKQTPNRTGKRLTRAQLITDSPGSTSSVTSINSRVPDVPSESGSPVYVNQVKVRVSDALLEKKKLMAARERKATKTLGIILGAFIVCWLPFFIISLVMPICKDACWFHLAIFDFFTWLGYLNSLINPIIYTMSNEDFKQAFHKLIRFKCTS
# Muscarinic acetylcholine receptor M3 (Homo sapiens), sequence (P20309 whole entry, looked up): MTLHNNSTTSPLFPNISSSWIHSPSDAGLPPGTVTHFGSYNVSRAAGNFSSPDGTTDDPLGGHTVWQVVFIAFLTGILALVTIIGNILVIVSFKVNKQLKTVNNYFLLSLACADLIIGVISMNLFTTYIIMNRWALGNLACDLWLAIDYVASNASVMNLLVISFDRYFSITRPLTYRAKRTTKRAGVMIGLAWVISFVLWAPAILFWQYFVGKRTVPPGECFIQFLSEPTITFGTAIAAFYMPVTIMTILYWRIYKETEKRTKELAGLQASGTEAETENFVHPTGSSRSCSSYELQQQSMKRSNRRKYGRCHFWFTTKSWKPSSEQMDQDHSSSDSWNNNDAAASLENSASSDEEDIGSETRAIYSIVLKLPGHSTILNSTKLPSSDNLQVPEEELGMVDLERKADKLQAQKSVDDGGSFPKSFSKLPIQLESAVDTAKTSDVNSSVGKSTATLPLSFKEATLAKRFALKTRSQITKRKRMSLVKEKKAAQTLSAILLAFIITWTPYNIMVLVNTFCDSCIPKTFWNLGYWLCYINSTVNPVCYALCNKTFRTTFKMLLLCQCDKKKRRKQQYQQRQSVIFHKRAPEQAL
# Muscarinic acetylcholine receptor M2 (Homo sapiens), sequence (P08172 whole entry): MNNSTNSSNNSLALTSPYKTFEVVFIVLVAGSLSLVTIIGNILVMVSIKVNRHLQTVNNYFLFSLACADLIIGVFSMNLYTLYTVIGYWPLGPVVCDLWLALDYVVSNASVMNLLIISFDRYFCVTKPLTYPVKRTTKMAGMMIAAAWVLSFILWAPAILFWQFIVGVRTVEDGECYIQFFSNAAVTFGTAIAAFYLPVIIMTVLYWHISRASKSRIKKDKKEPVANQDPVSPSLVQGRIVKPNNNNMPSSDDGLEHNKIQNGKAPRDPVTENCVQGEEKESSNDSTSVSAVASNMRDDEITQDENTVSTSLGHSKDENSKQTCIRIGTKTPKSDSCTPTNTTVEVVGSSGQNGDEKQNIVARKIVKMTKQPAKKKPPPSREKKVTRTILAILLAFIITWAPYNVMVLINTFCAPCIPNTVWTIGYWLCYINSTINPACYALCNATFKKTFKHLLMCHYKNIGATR
# Alpha-2A adrenergic receptor (Homo sapiens), sequence (P08913 whole entry): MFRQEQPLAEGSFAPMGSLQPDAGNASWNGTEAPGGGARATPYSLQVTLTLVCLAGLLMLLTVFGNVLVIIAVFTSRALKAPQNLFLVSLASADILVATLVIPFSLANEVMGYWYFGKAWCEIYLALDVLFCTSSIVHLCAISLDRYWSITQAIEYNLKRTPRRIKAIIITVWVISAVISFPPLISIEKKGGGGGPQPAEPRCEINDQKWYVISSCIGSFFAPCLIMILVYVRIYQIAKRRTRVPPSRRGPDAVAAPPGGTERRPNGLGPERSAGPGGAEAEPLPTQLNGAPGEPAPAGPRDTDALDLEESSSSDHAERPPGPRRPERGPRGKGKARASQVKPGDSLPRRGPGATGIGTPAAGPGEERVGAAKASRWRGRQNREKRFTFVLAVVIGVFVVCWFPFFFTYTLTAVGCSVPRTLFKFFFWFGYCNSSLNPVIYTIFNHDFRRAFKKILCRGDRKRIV
# Adenosine receptor A2b (Homo sapiens), sequence (P29275 whole entry): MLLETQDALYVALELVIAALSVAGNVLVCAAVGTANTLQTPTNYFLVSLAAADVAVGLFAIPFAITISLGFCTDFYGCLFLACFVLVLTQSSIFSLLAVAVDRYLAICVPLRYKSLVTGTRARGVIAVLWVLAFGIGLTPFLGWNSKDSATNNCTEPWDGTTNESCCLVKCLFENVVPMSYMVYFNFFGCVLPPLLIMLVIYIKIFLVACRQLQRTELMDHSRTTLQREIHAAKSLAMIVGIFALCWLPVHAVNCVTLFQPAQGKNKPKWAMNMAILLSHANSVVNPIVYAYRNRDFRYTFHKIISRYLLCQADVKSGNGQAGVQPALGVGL
# Histamine H1 receptor (Homo sapiens), sequence (P35367 whole entry): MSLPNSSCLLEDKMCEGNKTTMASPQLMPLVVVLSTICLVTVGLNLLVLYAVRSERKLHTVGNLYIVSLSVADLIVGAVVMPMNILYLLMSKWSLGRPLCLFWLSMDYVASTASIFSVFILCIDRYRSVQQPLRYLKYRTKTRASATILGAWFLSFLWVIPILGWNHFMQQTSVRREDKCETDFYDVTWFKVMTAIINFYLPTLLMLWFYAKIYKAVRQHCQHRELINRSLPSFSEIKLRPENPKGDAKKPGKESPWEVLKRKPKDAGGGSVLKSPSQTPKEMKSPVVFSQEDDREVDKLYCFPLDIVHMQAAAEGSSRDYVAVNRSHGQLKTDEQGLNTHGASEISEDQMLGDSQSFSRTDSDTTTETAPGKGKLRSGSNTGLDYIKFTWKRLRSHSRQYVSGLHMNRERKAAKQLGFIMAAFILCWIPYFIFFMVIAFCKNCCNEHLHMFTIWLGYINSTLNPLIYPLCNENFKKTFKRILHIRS
smiles,measurement,setting,value
CNc1nn2c(CCN(C)C)cc(C)nc2c1S(=O)(=O)c1ccccc1,Ki,[1],33.9 nM
CNc1nn2c(CN(C)C)cc(C)nc2c1S(=O)(=O)c1ccccc1,Ki,[2]; read-out: pKi (converted),1.82 nM
CNc1nn2c(N)cc(C)nc2c1S(=O)(=O)c1ccccc1,inhibition,[3],inactive
same,inhibition,[4],inactive
same,inhibition,[5],inactive
same,inhibition,[6],inactive
same,inhibition,[7],inactive
same,inhibition,[8],inactive
same,inhibition,[9],inactive
same,inhibition,[10],inactive
same,inhibition,[11],inactive
same,inhibition,[12],inactive
same,inhibition,[13],inactive
same,inhibition,[14],inactive
same,inhibition,[15],inactive
same,inhibition,[16],inactive
same,inhibition,[17],50%
same,Ki,[2]; read-out: pKi (converted),0.302 nM
same,Kb,[18],0.501 nM
same,inhibition,[19],inactive
same,inhibition,[20],inactive
same,inhibition,[21],inactive
same,inhibition,[22],inactive
same,inhibition,[23],inactive
same,inhibition,[24],inactive
same,inhibition,[25],inactive
same,inhibition,[26],inactive
same,inhibition,[27],inactive
same,inhibition,[28],inactive
same,inhibition,[29],inactive
same,inhibition,[30],inactive
same,inhibition,[31],inactive
same,inhibition,[32],inactive
same,inhibition,[33],100%
same,inhibition,[34],inactive
same,inhibition (INH),[35],Not Active
CNc1nn2c(C)cc(CN)nc2c1S(=O)(=O)c1ccccc1,inhibition,[17],inactive
same,Ki,[2]; read-out: pKi (converted),0.977 nM
CSc1nn2c(N3CCNCC3)c3c(nc2c1S(=O)(=O)c1ccccc1)CCC3,Ki,[2]; read-out: Ki,0.85 nM
CNc1nn2c(C)c(N)c(C)nc2c1S(=O)(=O)c1ccccc1,inhibition,[17],inactive
same,Ki,[2]; read-out: pKi (converted),0.525 nM
same,Kb,[18],0.398 nM
CNc1nn2c(N3CCOCC3)cc(C)nc2c1S(=O)(=O)c1ccccc1,Ki,[2]; read-out: pKi (converted),16.6 nM
CNc1nn2c(C)c(CN(C)C)c(C)nc2c1S(=O)(=O)c1ccccc1,Ki,[2]; read-out: pKi (converted),0.708 nM
CNc1nn2c(C)c(CN)c(C)nc2c1S(=O)(=O)c1cccc(Cl)c1,Ki,[2]; read-out: pKi (converted),0.55 nM
CNc1nn2c(N(C)CCN(C)C)cc(C)nc2c1S(=O)(=O)c1ccccc1,Ki,[2]; read-out: pKi (converted),22.4 nM
CNc1nn2c(C)c(CN(C)C)c(C)nc2c1S(=O)(=O)c1cccc(F)c1,Ki,[2]; read-out: pKi (converted),0.891 nM
CNc1nn2c(N)cc(C)nc2c1S(=O)(=O)c1cccc(Cl)c1,Ki,[2]; read-out: pKi (converted),0.219 nM
CNc1nn2c(C)cc(C)nc2c1S(=O)(=O)c1ccccc1,Ki,[2]; read-out: pKi (converted),0.263 nM
CNc1nn2c(CN)cc(C)nc2c1S(=O)(=O)c1ccccc1,Ki,[2]; read-out: pKi (converted),1.86 nM
CNc1nn2c(CCN)cc(C)nc2c1S(=O)(=O)c1ccccc1,Kb,[18],3.98 nM
same,Ki,[1],3.09 nM
CNc1nn2c(NC)cc(C)nc2c1S(=O)(=O)c1ccccc1,Ki,[2]; read-out: pKi (converted),0.575 nM
CNc1nn2c(C)c(CN(C)C)c(C)nc2c1S(=O)(=O)c1cccc(Cl)c1,Ki,[2]; read-out: pKi (converted),0.417 nM
CNc1nn2c(N)c(Cl)c(C)nc2c1S(=O)(=O)c1ccccc1,Ki,[2]; read-out: Ki,0.14 nM
CNc1nn2c(N)c(Cl)c(C)nc2c1S(=O)(=O)c1cccc(Cl)c1,Ki,[2]; read-out: pKi (converted),18.6 nM
CNc1nn2c(C)c(CCN(C)C)c(C)nc2c1S(=O)(=O)c1ccccc1,Ki,[2]; read-out: pKi (converted),2.09 nM
CNc1nn2c(C)c(CN)c(C)nc2c1S(=O)(=O)c1ccccc1,Ki,[2]; read-out: pKi (converted),0.646 nM
CNc1nn2c(C)c(NC(C)=O)c(C)nc2c1S(=O)(=O)c1ccccc1,Ki,[2]; read-out: pKi (converted),4.68 nM
CNc1nn2c(NCCN(C)C)cc(C)nc2c1S(=O)(=O)c1ccccc1,Ki,[2]; read-out: pKi (converted),69.2 nM
CNc1nn2c(N(C)C)cc(C)nc2c1S(=O)(=O)c1ccccc1,Ki,[2]; read-out: pKi (converted),0.347 nM
CNc1nn2c(C)c(N(C)C)c(C)nc2c1S(=O)(=O)c1ccccc1,inhibition,[17],inactive
same,Ki,[2]; read-out: pKi (converted),0.209 nM
CNc1nn2c(NCCCN(C)C)cc(C)nc2c1S(=O)(=O)c1ccccc1,Ki,[2]; read-out: Ki,112 nM
